Among the test systems are MDA-MB-231 breast; NCI-H522 lung; K-562 leukemia; SF-268 CNS; NCI-H23 lung; A549 NSCLC; SNB-19 CNS; UACC-257 melanoma; A498 renal; SK-OV-3 ovarian.
Assay in all cases: NCI anticancer screen, dose series, 48 h

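The compound was tested at five concentrations on cells cultured in 96-well plates, with a 48-hour exposure period. GI50 = concentration required for 50% inhibition of growth. TGI: concentration producing complete growth inhibition.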

With `CN(C)C(=O)OC1=CC2CCC(C1)N2C` (stereo not drawn), the TGI in the assay on MDA-MB-231 breast, in the assay with NCI-H522 lung, in the assay on K-562 leukemia, in the assay with SF-268 CNS, with NCI-H23 lung and in the assay on A549 NSCLC was more than 100 µM throughout. In addition, the TGI in the assay on SNB-19 CNS, with UACC-257 melanoma, with A498 renal and in the assay with SK-OV-3 ovarian was more than 100 µM throughout.

Consider `O=C1/C(=C/c2[nH]ncc2-c2ccc(Cl)cc2)C(=O)N(c2ccccc2)C1c1ccccc1` (stereo not drawn), for which the TGI with MDA-MB-231 breast is 42.6 µM; with NCI-H522 lung, 27.2 µM; with K-562 leukemia, 54.5 µM; in the assay on SF-268 CNS, 40.9 µM; in the assay on NCI-H23 lung, 28.8 µM; in the assay with A549 NSCLC it was more than 100 µM. Also, the TGI in the assay on SNB-19 CNS is more than 100 µM; with UACC-257 melanoma, 64.7 µM; in the assay with A498 renal, 69.6 µM; in the assay with SK-OV-3 ovarian it was 56.3 µM.

Consider `Cc1ccc2nc(-c3ccc(NC(=O)c4ccc(N)cc4)c(S(=O)(=O)O)c3)sc2c1`, for which the TGI in the assay with MDA-MB-231 breast, with NCI-H522 lung, in the assay with K-562 leukemia, in the assay on SF-268 CNS, in the assay with NCI-H23 lung and in the assay with A549 NSCLC was more than 100 µM in each case. For the same compound, the TGI in the assay on SNB-19 CNS, in the assay with UACC-257 melanoma, in the assay with A498 renal and in the assay with SK-OV-3 ovarian was more than 100 µM each time.

On to `N#Cc1ccccc1C#C/C=C\C#Cc1ccccc1N`, for which the GI50 was 2.13 µM in the assay with MDA-MB-231 breast; 2.94 µM in the assay with NCI-H522 lung; 4.12 µM in the assay with K-562 leukemia; 9.12 µM in the assay with SF-268 CNS; 2.88 µM with NCI-H23 lung; 6.95 µM in the assay on A549 NSCLC. The values for the GI50 in the assay with SNB-19 CNS, in the assay with A498 renal and with SK-OV-3 ovarian were 7.17 µM, 34.9 µM and 3.22 µM, respectively. Further, the TGI is 8.37 µM in the assay with MDA-MB-231 breast; more than 100 µM with K-562 leukemia; more than 56.2 µM with SF-268 CNS; 29.2 µM in the assay with NCI-H23 lung; more than 100 µM in the assay with A549 NSCLC; more than 100 µM in the assay with SNB-19 CNS. Further, the TGI in the assay with UACC-257 melanoma is more than 22.8 µM; in the assay with A498 renal, 94.1 µM; in the assay with SK-OV-3 ovarian it was more than 100 µM.

On to `O=C1C2Cc3c(n(C(=O)c4ccccc4)c4ccccc34)CC2C(=O)N1c1ccc(Nc2ccc(N3C(=O)C4Cc5c(n(C(=O)c6ccccc6)c6ccccc56)CC4C3=O)cc2)cc1` (stereo not drawn), for which the TGI with MDA-MB-231 breast, in the assay on NCI-H522 lung, with K-562 leukemia, with SF-268 CNS, in the assay with NCI-H23 lung and with A549 NSCLC was more than 100 µM throughout. In addition, the TGI in the assay on SNB-19 CNS, with UACC-257 melanoma, in the assay on A498 renal and in the assay with SK-OV-3 ovarian was more than 100 µM throughout.

Consider `O=C(CC(c1ccccc1)C1C(=O)NC(=S)NC1=O)c1ccc([N+](=O)[O-])cc1` (stereo not drawn), for which the TGI with MDA-MB-231 breast, in the assay on NCI-H522 lung, with K-562 leukemia, with SF-268 CNS, with NCI-H23 lung and with A549 NSCLC was more than 100 µM in each case. Besides, the TGI with SNB-19 CNS, in the assay on UACC-257 melanoma, with A498 renal and in the assay with SK-OV-3 ovarian was more than 100 µM in each case.

As to `CC1=CC(O)C(C(O)(C(F)(F)F)C(F)(F)F)C(C)(C)C1` (stereo not drawn), the TGI with MDA-MB-231 breast, in the assay on NCI-H522 lung, in the assay with K-562 leukemia, with SF-268 CNS, in the assay with NCI-H23 lung and in the assay with A549 NSCLC was more than 10 µM throughout. Further, the TGI was more than 10 µM in the assay on SNB-19 CNS, more than 10 µM in the assay with UACC-257 melanoma, 0.0823 µM in the assay with A498 renal and more than 10 µM in the assay on SK-OV-3 ovarian.

For the compound `Cc1ccc(OCC2=NC3S/C(=C/c4ccc([N+](=O)[O-])o4)C(=O)N3N2)cc1` (stereo not drawn), the TGI with MDA-MB-231 breast amounted to 26.6 µM; in the assay with NCI-H522 lung, 4.37 µM; in the assay on K-562 leukemia, 3.98 µM; in the assay on SF-268 CNS, 14.9 µM; with NCI-H23 lung, 28.8 µM; with A549 NSCLC it was 38.9 µM. Moreover, the TGI with SNB-19 CNS amounted to 32.2 µM; in the assay with UACC-257 melanoma it was 25.5 µM; in the assay with A498 renal it was 37.8 µM; with SK-OV-3 ovarian it was 29.9 µM.

Take `O=C(O)C(O)C(O)C(O)C(O)C(=O)O` (stereo not drawn): the TGI in the assay with MDA-MB-231 breast, with NCI-H522 lung, in the assay on K-562 leukemia, with SF-268 CNS, in the assay on NCI-H23 lung and with A549 NSCLC was more than 100 µM throughout. Further, the TGI with SNB-19 CNS, in the assay on UACC-257 melanoma, with A498 renal and with SK-OV-3 ovarian was more than 100 µM each time.

Turning to `Nc1cc(S(=O)(=O)O)cc2ccc(S(=O)(=O)O)cc12`, the TGI with MDA-MB-231 breast, in the assay with NCI-H522 lung, in the assay with K-562 leukemia, with SF-268 CNS, with NCI-H23 lung and in the assay on A549 NSCLC was more than 100 µM in each case. Moreover, the TGI in the assay on SNB-19 CNS, in the assay on UACC-257 melanoma, in the assay on A498 renal and in the assay with SK-OV-3 ovarian was more than 100 µM throughout.

For the compound `COC(=O)C1=C(OC(=O)/C=C/c2ccc(Cl)cc2)C(C(=O)OC)[C@]2(O)[C@@H](C(=O)OC)[C@H]1C[C@@H](c1ccccc1)[C@@H]2C(=O)OC` (stereo partly drawn), the TGI is more than 65.9 µM in the assay on MDA-MB-231 breast; 5.83 µM with NCI-H522 lung; more than 100 µM in the assay with K-562 leukemia; more than 25.4 µM in the assay with SF-268 CNS; more than 25.1 µM in the assay on NCI-H23 lung; more than 100 µM in the assay on A549 NSCLC. In addition, the TGI with SNB-19 CNS is more than 95.9 µM; in the assay on UACC-257 melanoma, more than 100 µM; with A498 renal, 44.2 µM; in the assay with SK-OV-3 ovarian, more than 100 µM.

In the case of `CCN1CCN(c2nc3ccccc3nc2C(=O)c2ccc(OC)c(OC)c2)CC1`, the TGI in the assay on MDA-MB-231 breast is 32 µM; with NCI-H522 lung, 27.9 µM; in the assay with K-562 leukemia it was 34.1 µM; in the assay with SF-268 CNS, more than 100 µM; in the assay on NCI-H23 lung, 98.4 µM; in the assay with A549 NSCLC, 28.3 µM. For the same compound, the TGI is 88.2 µM with SNB-19 CNS, 46.4 µM with UACC-257 melanoma, more than 100 µM with A498 renal and 24.5 µM in the assay with SK-OV-3 ovarian.
